Measured values taken from US11548870B2, “Compounds useful as inhibitors of helios protein” (Bristol-Myers Squibb Company, priority 2019, dated 2023).

Assays:
[1] = molecular target: T1, Helios (Homo sapiens, UniProt Q96SW2+Q9UKS7); experiment: Helios Cellular Degradation Assay (flow cytometry, Helios-PE antibody staining, 72 h); type: cell-based; conditions: Jurkat cells, 72 h incubation, flow cytometry; for Dmax: Jurkat, read-out: Helios Dmax
T1 construct: fluorescently labelled antibodies against Helios and Ikaros; endogenous in cells; host or cells: Jurkat cells
Protocol: (§1) Helios Cellular Degradation Assay
(§2) Jurkat cells were plated at 80,000 cells/well in 40 μL RPMI+10% FBS in a 384 well cell culture plate prior to using acoustic dispensing technology for adding compound of interest. Cell cultures were incubated for 72 h at 37° C. and 5% CO2. In order to facilitate analysis, cell cultures were spun down at 200 rpm for 5 min and the supernatant was discarded. After shaking the plate to dislodge the cell pellet, cells were resuspended in 50 μL of Fixation Buffer (eBioScience FoxP3 buffer set 0000) for 60 min at room temperature. After centrifuging and discarding the supernatant, cells were permeabilized with 50 μL of Permeabilization buffer (eBioScience FoxP3 buffer set 00-5523-00) for 10 min at room temperature. Following permeabilization, cells were spun down and the supernatant was replaced with 20 μL fluorescently labelled antibodies against Helios and Ikaros or corresponding Isotype controls in 1× Permeabilization buffer (Ikaros-Alexa488 [Biolegend, Cat #368408, 1:50], Helios-PE [CST, Cat #29360, 1:50]) and staining reactions were incubated for 1 h at room temperature; protected from light. Subsequently, 30 μL of 1× Permeabilization buffer was added prior to centrifuging the cells and discarding the supernatant. Stained cells were resuspended in 25 μL of flow cytometry staining buffer (PBS+0.2% BSA) and analyzed using an Intellicyt Ique Plus flow cytometer.
as §2, with “00-5523-00)” for “0000)”

[2] = molecular target: T2, Ikaros (Homo sapiens, UniProt Q13422); experiment: Helios Cellular Degradation Assay, Ikaros readout (flow cytometry, Ikaros-Alexa488 antibody staining, 72 h); type: cell-based; conditions: Jurkat cells, 72 h incubation, flow cytometry; for Dmax: Jurkat, read-out: Ikaros Dmax
T2 construct: fluorescently labelled antibodies against Helios and Ikaros; endogenous in cells; host or cells: Jurkat cells
Protocol: as §1, §2
as §2, with “00-5523-00)” for “0000)”

T2 sequence (Q96SW2 whole entry partner): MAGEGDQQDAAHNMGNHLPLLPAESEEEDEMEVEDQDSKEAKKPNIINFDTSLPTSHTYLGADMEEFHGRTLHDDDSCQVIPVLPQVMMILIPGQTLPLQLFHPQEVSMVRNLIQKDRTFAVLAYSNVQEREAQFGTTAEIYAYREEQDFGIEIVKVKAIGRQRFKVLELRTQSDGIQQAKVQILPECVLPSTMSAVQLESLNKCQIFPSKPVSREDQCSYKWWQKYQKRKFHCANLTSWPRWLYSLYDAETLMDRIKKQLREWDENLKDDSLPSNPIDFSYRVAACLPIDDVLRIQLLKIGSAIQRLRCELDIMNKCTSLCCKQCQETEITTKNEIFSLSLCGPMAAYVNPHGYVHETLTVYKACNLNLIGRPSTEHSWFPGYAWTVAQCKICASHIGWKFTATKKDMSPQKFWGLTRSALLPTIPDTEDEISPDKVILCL
T2 sequence (Q16531 whole entry partner): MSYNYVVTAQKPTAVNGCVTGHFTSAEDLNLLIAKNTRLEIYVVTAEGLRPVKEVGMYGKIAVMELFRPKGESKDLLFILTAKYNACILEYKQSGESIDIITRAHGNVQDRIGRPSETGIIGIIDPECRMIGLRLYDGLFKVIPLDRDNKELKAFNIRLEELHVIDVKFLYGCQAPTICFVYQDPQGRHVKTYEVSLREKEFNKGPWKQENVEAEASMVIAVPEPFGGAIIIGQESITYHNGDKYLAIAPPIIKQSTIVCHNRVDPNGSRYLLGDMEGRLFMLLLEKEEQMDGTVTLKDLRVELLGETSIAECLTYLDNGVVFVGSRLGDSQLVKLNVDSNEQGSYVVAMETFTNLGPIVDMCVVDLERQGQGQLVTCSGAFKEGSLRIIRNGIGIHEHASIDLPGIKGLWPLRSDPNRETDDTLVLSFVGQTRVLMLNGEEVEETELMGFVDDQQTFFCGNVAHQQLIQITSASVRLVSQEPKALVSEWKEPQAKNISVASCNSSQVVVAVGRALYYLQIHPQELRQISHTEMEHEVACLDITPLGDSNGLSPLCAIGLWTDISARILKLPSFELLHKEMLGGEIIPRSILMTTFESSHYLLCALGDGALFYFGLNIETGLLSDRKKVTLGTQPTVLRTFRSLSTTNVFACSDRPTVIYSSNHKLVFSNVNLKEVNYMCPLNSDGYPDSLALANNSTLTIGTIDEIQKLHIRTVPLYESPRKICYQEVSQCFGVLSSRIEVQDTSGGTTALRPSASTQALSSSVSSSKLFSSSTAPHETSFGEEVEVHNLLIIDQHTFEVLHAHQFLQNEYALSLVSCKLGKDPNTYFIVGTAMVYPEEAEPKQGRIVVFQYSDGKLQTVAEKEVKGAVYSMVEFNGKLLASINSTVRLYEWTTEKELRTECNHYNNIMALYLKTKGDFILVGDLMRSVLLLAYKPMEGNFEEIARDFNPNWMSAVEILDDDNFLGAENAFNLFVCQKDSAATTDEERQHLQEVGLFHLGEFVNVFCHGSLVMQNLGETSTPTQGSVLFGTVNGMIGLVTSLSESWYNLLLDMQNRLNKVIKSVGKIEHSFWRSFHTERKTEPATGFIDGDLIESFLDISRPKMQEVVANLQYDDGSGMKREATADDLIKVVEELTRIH
T2 sequence (Q13422 whole entry): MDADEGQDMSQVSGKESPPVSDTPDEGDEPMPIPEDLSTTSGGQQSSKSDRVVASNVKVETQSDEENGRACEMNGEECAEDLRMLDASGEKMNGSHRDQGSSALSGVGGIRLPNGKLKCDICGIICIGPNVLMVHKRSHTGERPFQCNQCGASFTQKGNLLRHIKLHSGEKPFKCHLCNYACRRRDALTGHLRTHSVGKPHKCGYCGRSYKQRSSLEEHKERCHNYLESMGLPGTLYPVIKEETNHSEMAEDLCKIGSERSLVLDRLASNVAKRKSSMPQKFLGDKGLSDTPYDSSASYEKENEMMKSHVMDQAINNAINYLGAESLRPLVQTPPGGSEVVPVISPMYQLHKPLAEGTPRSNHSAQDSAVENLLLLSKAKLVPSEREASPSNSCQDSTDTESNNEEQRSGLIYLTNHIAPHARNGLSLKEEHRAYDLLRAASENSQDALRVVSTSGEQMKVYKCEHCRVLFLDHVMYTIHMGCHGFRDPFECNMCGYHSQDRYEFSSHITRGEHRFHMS
T1 sequence (Q9UKS7 whole entry): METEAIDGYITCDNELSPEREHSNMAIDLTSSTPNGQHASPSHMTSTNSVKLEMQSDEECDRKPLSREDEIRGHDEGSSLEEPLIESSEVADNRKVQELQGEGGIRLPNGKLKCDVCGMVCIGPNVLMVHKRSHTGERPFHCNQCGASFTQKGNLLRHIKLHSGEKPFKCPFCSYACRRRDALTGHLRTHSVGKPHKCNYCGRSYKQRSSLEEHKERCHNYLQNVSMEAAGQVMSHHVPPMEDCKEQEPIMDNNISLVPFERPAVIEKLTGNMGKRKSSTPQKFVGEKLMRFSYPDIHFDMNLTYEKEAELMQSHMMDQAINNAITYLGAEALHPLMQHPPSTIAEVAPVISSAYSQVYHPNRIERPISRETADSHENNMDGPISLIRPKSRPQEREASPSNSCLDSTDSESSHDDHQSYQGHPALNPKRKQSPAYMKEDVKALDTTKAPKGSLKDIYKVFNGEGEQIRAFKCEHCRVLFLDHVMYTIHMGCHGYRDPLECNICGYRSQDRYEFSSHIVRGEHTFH
T1 sequence (Q96SW2 whole entry): as the sequence (Q96SW2 whole entry partner) above
T1 sequence (Q16531 whole entry partner): as the sequence (Q16531 whole entry partner) above

Row | Structure (SMILES) | DC50 [1] | Dmax [1] | DC50 [2] | Dmax [2] | Helios Dmax [1] | Ikaros Dmax [2]
1 | CCN(Cc1ccncc1)Cc1ccnc(-c2ccc3c(c2)CN(C2CCC(=O)NC2=O)C3=O)c1 (stereo not shown) [Example 22, 3-(5-(4-((ethyl(pyridin-4-ylmethyl)amino)methyl)pyridin-2-yl)-1-oxoisoindolin-2-yl) piperidine-2,6-dione] | 0.537 µM | 67% | > 10 µM | 33% | – | –
2 | O=C1CCC(N2Cc3cc(-c4cc(CN5CCC(N6CCCC6)CC5)ccn4)ccc3C2=O)C(=O)N1 (stereo not shown) [Example 23, 3-(1-oxo-5-(4-((4-(pyrrolidin-1-yl)piperidin-1-yl)methyl)pyridin-2-yl)isoindolin-2-yl)piperidine-2,6-dione] | > 10 µM | 22% | > 10 µM | 14% | – | –
3 | O=C1CCC(N2Cc3cc(-c4cc(CN5CCN(C(=O)c6ccco6)CC5)ccn4)ccc3C2=O)C(=O)N1 (stereo not shown) [Example 24, 3-(5-(4-((4-(furan-2-carbonyl)piperazin-1-yl)methyl)pyridin-2-yl)-1-oxoisoindolin-2-yl)piperidine-2,6-dione] | > 10 µM | 3% | > 10 µM | 11% | – | –
4 | O=C1CCC(N2Cc3cc(-c4cc(CN5CCN(c6ccncc6)CC5)ccn4)ccc3C2=O)C(=O)N1 (stereo not shown) [Example 25, 3-(1-oxo-5-(4-((4-(pyridin-4-yl)piperazin-1-yl)methyl)pyridin-2-yl)isoindolin-2-yl)piperidine-2,6-dione] | > 10 µM | 0% | > 10 µM | 0% | – | –
5 | O=C1CCC(N2Cc3cc(-c4cc(CN5CCN(c6cnccn6)CC5)ccn4)ccc3C2=O)C(=O)N1 (stereo not shown) [Example 26, 3-(1-oxo-5-(4-((4-(pyrazin-2-yl)piperazin-1-yl)methyl)pyridin-2-yl)isoindolin-2-yl)piperidine-2,6-dione] | > 10 µM | 6% | > 10 µM | 15% | – | –
6 | Cc1cccc(N2CCN(Cc3ccnc(-c4ccc5c(c4)CN(C4CCC(=O)NC4=O)C5=O)c3)CC2C)c1 (stereo not shown) [Example 27, 3-(5-(4-((3-methyl-4-(m-tolyl)piperazin-1-yl)methyl)pyridin-2-yl)-1-oxoisoindolin-2-yl)piperidine-2,6-dione] | > 10 µM | 36% | > 10 µM | 7% | – | –
7 | CC(=O)N1CCN(Cc2ccnc(-c3ccc4c(c3)CN(C3CCC(=O)NC3=O)C4=O)c2)CC1 (stereo not shown) [Example 28, 3-(5-(4-((4-acetylpiperazin-1-yl)methyl)pyridin-2-yl)-1-oxoisoindolin-2-yl)piperidine-2,6-dione] | > 10 µM | 17% | > 10 µM | 13% | – | –
8 | CN1CCC(N(C)Cc2ccnc(-c3ccc4c(c3)CN(C3CCC(=O)NC3=O)C4=O)c2)C1 (stereo not shown) [Example 29, 3-(5-(4-((methyl(1-methylpyrrolidin-3-yl)amino)methyl)pyridin-2-yl)-1-oxoisoindolin-2-yl)piperidine-2,6-dione] | 7.51 µM | – | > 10 µM | 6% | 55% | –
9 | CN1CCC[C@H]1CC1CCCCN1Cc1ccnc(-c2ccc3c(c2)CN(C2CCC(=O)NC2=O)C3=O)c1 (stereo partly drawn) [Example 30, 3-(5-(4-((2-(((S)-1-methylpyrrolidin-2-yl)methyl)piperidin-1-yl)methyl)pyridin-2-yl)-1-oxoisoindolin-2-yl)piperidine-2,6-dione] | > 10 µM | 46% | > 10 µM | -1% | – | –
10 | CC(=O)N[C@H]1CCN(Cc2ccnc(-c3ccc4c(c3)CN(C3CCC(=O)NC3=O)C4=O)c2)C1 (stereo partly drawn) [Example 31, N-((3S)-1-((2-(2-(2,6-dioxopiperidin-3-yl)-1-oxoisoindolin-5-yl)pyridin-4-yl)methyl)pyrrolidin-3-yl)acetamide] | 0.268 µM | 81% | > 10 µM | 20% | – | –
11 | O=C1CCC(N2Cc3cc(-c4cc(CN5CCN(C(=O)C6CCCO6)CC5)ccn4)ccc3C2=O)C(=O)N1 (stereo not shown) [Example 32, 3-(1-oxo-5-(4-((4-(tetrahydrofuran-2-carbonyl)piperazin-1-yl)methyl)pyridin-2-yl)isoindolin-2-yl) piperidine-2,6-dione] | > 10 µM | 35% | > 10 µM | 23% | – | –
12 | CN(C)[C@H]1CCN(Cc2ccnc(-c3ccc4c(c3)CN(C3CCC(=O)NC3=O)C4=O)c2)C1 (stereo partly drawn) [Example 33, 3-(5-(4-(((S)-3-(dimethylamino)pyrrolidin-1-yl)methyl)pyridin-2-yl)-1-oxoisoindolin-2-yl)piperidine-2,6-dione] | > 10 µM | 50% | > 10 µM | 2% | – | –
13 | CN(CC(=O)N(C)C)Cc1ccnc(-c2ccc3c(c2)CN(C2CCC(=O)NC2=O)C3=O)c1 (stereo not shown) [Example 34, 2-(((2-(2-(2,6-dioxopiperidin-3-yl)-1-oxoisoindolin-5-yl)pyridin-4-yl)methyl)(methyl)amino)-N,N-dimethylacetamide] | > 10 µM | 26% | > 10 µM | 9% | – | –
14 | CN1CCN(Cc2ccnc(-c3ccc4c(c3)CN(C3CCC(=O)NC3=O)C4=O)c2)CC1 (stereo not shown) [Example 35, 3-(5-(4-((4-methylpiperazin-1-yl)methyl)pyridin-2-yl)-1-oxoisoindolin-2-yl)piperidine-2,6-dione] | 0.869 µM | 63% | > 10 µM | 30% | – | –
15 | O=C1CCC(N2Cc3cc(-c4cc(CN5CCN(Cc6ccccc6)CC5)ccn4)ccc3C2=O)C(=O)N1 (stereo not shown) [Example 36] | > 10 µM | – | > 10 µM | – | 11% | 14%
16 | O=C1CN(Cc2ccnc(-c3ccc4c(c3)CN(C3CCC(=O)NC3=O)C4=O)c2)CCN1 (stereo not shown) [Example 37, 3-(1-oxo-5-(4-((3-oxopiperazin-1-yl)methyl)pyridin-2-yl)isoindolin-2-yl)piperidine-2,6-dione] | > 10 µM | 24% | > 10 µM | 10% | – | –
17 | O=C1CCC(N2Cc3cc(-c4cc(CN5CCC(Cc6ccccc6)CC5)ccn4)ccc3C2=O)C(=O)N1 (stereo not shown) [Example 38, 3-(5-(4-((4-benzylpiperidin-1-yl)methyl)pyridin-2-yl)-1-oxoisoindolin-2-yl)piperidine-2,6-dione] | 0.087 µM | 68% | > 10 µM | 6% | – | –
18 | O=C1CCC(N2Cc3cc(-c4cc(CN5CCc6ccccc6C5)ccn4)ccc3C2=O)C(=O)N1 (stereo not shown) [Example 39, 3-(5-(4-((3,4-dihydroisoquinolin-2(1H)-yl)methyl)pyridin-2-yl)-1-oxoisoindolin-2-yl)piperidine-2,6-dione] | 0.444 µM | 58% | > 10 µM | 6% | – | –
19 | CN(C)C1CCN(Cc2ccnc(-c3ccc4c(c3)CN(C3CCC(=O)NC3=O)C4=O)c2)CC1 (stereo not shown) [Example 40, 3-(5-(4-((4-(dimethylamino)piperidin-1-yl)methyl)pyridin-2-yl)-1-oxoisoindolin-2-yl)piperidine-2,6-dione] | > 10 µM | 9% | > 10 µM | 8% | – | –
20 | NC(=O)C1CCN(Cc2ccnc(-c3ccc4c(c3)CN(C3CCC(=O)NC3=O)C4=O)c2)CC1 (stereo not shown) [Example 41, 1-((2-(2-(2,6-dioxopiperidin-3-yl)-1-oxoisoindolin-5-yl)pyridin-4-yl)methyl)piperidine-4-carboxamide] | 0.727 µM | 80% | > 10 µM | 24% | – | –
21 | O=C1CCC(N2Cc3cc(-c4cc(CN5CCC(C(c6ccccc6)c6ccccc6)CC5)ccn4)ccc3C2=O)C(=O)N1 (stereo not shown) [Example 42, 3-(5-(4-((4-benzhydrylpiperidin-1-yl)methyl)pyridin-2-yl)-1-oxoisoindolin-2-yl)piperidine-2,6-dione] | > 10 µM | 3% | > 10 µM | 7% | – | –
22 | CN1CCCN(Cc2ccnc(-c3ccc4c(c3)CN(C3CCC(=O)NC3=O)C4=O)c2)CC1 (stereo not shown) [Example 43, 3-(5-(4-((4-methyl-1,4-diazepan-1-yl)methyl)pyridin-2-yl)-1-oxoisoindolin-2-yl) piperidine-2,6-dione] | > 10 µM | 10% | > 10 µM | 3% | – | –
